According to paper PMC6246607, “Novel AR-12 derivatives, P12-23 and P12-34, inhibit flavivirus replication by blocking host de novo pyrimidine biosynthesis” (Emerging Microbes & Infections, 2018):
“And” between values parts separate entries of the source, which are not always exact repeats. Equal values may be shown once.

Tests used:
DENV-2 [1] = test: Viral entry assay; format: cell-based, dengue virus; details: 1 µM, A549 cells, DENV-2 MOI 5
Procedure: A549 cells pretreated with P12-23 (1 µM), P12-34 (1 µM) or Pitstop®2 (5 µM) at 37 ℃ for 1 h were absorbed with DENV-2 (MOI 5) at 4 °C for 1 h. After removing the unbound viruses, cells were shifted to 37 ℃ for 30 min for viral entry. The cell surface-associated viruses were then removed by treatment with trypsin-EDTA (ThermoFisher) at 37 °C for 10 min. Viral entry indicated by E protein positivity was determined using a BD FACSCalibur Flow Cytometer (BD) after immunofluorescent staining with an anti-E mAb[47].

DENV-2 [2] = test: Viral translation assay (NS3 western blot); format: cell-based, dengue virus; details: 1 µM added at 1 hpi, A549 cells, DENV-2 MOI 20
Procedure: A549 cells absorbed with DENV-2 (MOI 20) at 4 °C for 1 h were washed to remove unbound viruses. After incubating at 37 °C for 1 h to allow viral entry, cells were treated with P12-23 (1 µM), P12-34 (1 µM) or 2′-c-methyladenosine (20 µM). Cells were harvested at 2, 3, 4, and 6 hpi for western blot analysis as previously described[46] with an anti-NS3 mAb[47] and an anti-actin mAb (NB600-501; Novus Biologicals, Littleton, CO, USA). Protein expression levels were quantified using ImageJ.

DENV-2 [3] = test: Viral binding assay; format: cell-based, dengue virus; details: 1 µM, A549 cells, DENV-2 MOI 5, 4 °C 1 h
Procedure: A549 cells and DENV-2 separately pretreated with P12-23 (1 µM), P12-34 (1 µM) or heparin (100 unit/ml) at 37 ℃ for 1 h were mixed to allow for viral adsorption at a multiplicity of infection (MOI) of 5 at 4 °C for 1 h. After washing off unbound viruses, RNA was extracted using an RNeasy® Mini Kit (QIAGEN, Hilden, Germany), and viral titers were quantified by real-time RT-PCR as previously described[48] using DENV-2 primers (5′-[…]-3′ and 5′-[…]-3′) and β-actin primers (5′-[…]-3′ and 5′-[…]-3′). After the RNA was normalized to the internal control in each sample, the relative level of viral RNA was determined using the DMSO solvent control.

A549 cells [4] = test: ER stress and autophagy western blot in A549 cells; format: cell-based, human; details: 1 µM, 24 h
Procedure: Supplementary figure 2. […] A549 cells with or without DENV-2 (MOI 5) infection were treated with P12-23 (1 μM), tunicamycin (TM) (5 μg/ml), thapsigargin (TG) (0.5 μM), or chemical chaperon 4-Phenylbutyric acid (4-PBA) (10 mM) for 24 h. Cell lysates were harvested for western blot analysis with antibodies against the indicated proteins.

DENV-2-eGFP = test: microbe, parasite or virus in culture; format: cell-based, dengue virus; details: for SI (CC50/IC50): DENV-2-eGFP; for IC50: Dengue virus, DENV2, A549, 24 h
Procedure: (§1) Approximately 50% of confluent cells seeded in 96-well plates were infected with viruses in the presence of drugs or DMSO as a solvent control. At 24 h post-infection (hpi), cells were fixed with 4% paraformaldehyde at room temperature (RT) for 20 min, permeated with a 0.5% Triton X-100 buffer for 2 min, and blocked with 3% BSA for 30 min. Nuclei were stained with DAPI (Sigma) at RT for 20 min. Viral NS3 was stained with a mouse anti-NS3 monoclonal antibody (mAb)[47] followed by staining with an Alexa Fluor 488-conjugated goat anti-mouse IgG antibody (ThermoFisher) at RT for 1 h. Nine images from different fields per well were acquired and analyzed using an ImageXpress Micro XLS Widefield High-Content Analysis System (Molecular Devices, Sunnyvale, USA). To quantify viral infection, the fluorescence intensities of viral NS3 or eGFP from the reporter virus were measured using MetaXpress® (Molecular Devices, Sunnyvale, USA) and were calculated with a mock control (infection as 0%) and a DMSO solvent control (infection as 100%).

DENV-2 [5] = test: Viral RNA replication assay (RT-qPCR); format: cell-based, dengue virus; details: 1 µM added at 1 hpi versus 2′CMA 20 µM, A549 cells, DENV-2 MOI 5
Procedure: Viral infection (MOI 5) and drug treatment were performed as described for the virus translation assay. Cells were harvested for real-time RT-PCR analysis after removing the cell-free viruses at 1, 2, 3, 6, 9, 12, 18, and 27 hpi. Viral RNA was quantified and normalized with actin RNA as described for the virus binding assay.

ZIKV = test: High-content image analysis of ZIKV infection (NS3) in A549 cells; format: cell-based, Zika virus; details: for SI (CC50/IC50) / relative potency versus AR-12 (fold) / IC50: ZIKV; for IC50: Zika virus, MOI 0.5, A549 cells, 24 h
Procedure: as §1

JEV-eGFP = test: microbe, parasite or virus in culture; format: cell-based, Japanese encephalitis virus; details: for relative potency versus AR-12 (fold): JEV; for SI (CC50/IC50): JEV-eGFP; for IC50: Japanese encephalitis virus, A549, 24 h
Procedure: as §1

A549 cells [6] = test: LDH release cytotoxicity assay; format: cell-based, human; details: 24 h; for CC50: A549 cells; for noncytotoxic concentrations: human A549 cells
Procedure: (§2) Cells were treated with compounds at the indicated concentrations for 24 h. The release of lactate dehydrogenase (LDH) was measured using a Cytotoxicity Detection Kit (Roche, Basel, Switzerland) after removing cell debris. Cells treated with 1% Triton X-100 were used to determine the maximal LDH release.

[7] = LDH release cytotoxicity assay; format: cell-based, human; details: human, A549 cells
Procedure: as §2

[8] = test system: interferon (IFN)-stimulated response element (ISRE) reporter; test: ISRE reporter assay and IFN-stimulated gene expression in HEK 293T cells; format: cell-based, human; details: 1 µM, 24 h
Procedure: Short synthetic 5′-triphosphate RNA molecules (ssRNA) was synthesized with use of the RiboMAX™ Large Scale RNA Production Kit (P1280, Promega) from control DNA template in the kit, then extracted with the RNeasy® Mini Kit (QIAGEN). About 80% confluent HEK 293T cells in 48 well-plate were co-transfected with pISRE-Luc (Stratagene, Ref 219089) (10 ng/well) and pRL-TK Renilla reporter plasmids (E2241, Promega) (2 ng/well), and increasing doses of ssRNA, then treated with DMSO, 1 μM brequinar, or 1 μM P12-34 for 24h. The luciferase activities were analyzed by using the Dual-Luciferase® Reporter Assay Kit (Promega) and SpectraMax L Microplate Reader (Molecular devices, San Jose, CA, USA). ISRE-Luciferase activity was firstly normalized with Renilla-luciferase activity, then normalized with DMSO control without ssRNA.
Supplementary figure 5. P12-34 amplifies innate immune response. (a) HEK 293T cells were co-transfected with pISRE-luc and pRL-TK Renilla reporter plasmids, and short synthetic 5′-triphosphate RNA molecules (ssRNA), then treated with DMSO, brequinar (1 μM), or P12-34 (1 μM) for 24 h. ISRE-Luciferase activity was normalized with Renilla-luciferase activity in each sample, and then the relative ISRE-Luc level was determined with the DMSO control without ssRNA. Representative data from repeated experiments are shown as mean and SD (n =3). […]

[9] = test system: DENV-2 (mouse-adaptive NGC strain); test: DENV challenge of Stat1-/- mice; format: in vivo
Procedure: Animal studies followed the guidelines of the Academia Sinica Institutional Animal Care and Use Committee. Five-week-old Stat1^−/− mice were subcutaneously challenged with 1 × 10^5 plaque-forming units (PFU) of DENV-2 (mouse-adaptive NGC strain)[29]. P12-34 (2.5 mg/kg per day in 500 µl PBS containing 10% DMSO) or vehicle control was intraperitoneally injected into DENV-2-infected mice for the first 6 days. At 1, 3, 5 and 7 days post-inoculation (dpi), the viral loads in sera were determined by RT-qPCR as previously described.

DENV-1 = test: High-content image analysis of DENV-1 infection (NS3) in A549 cells; format: cell-based, dengue virus
Procedure: as §1

DENV-2 [10] = test: High-content image analysis of DENV-2 infection (NS3) in A549 cells; format: cell-based, dengue virus
Procedure: as §1

DHODH = target: T1, DHODH (Homo sapiens, UniProt Q02127); test: BP12-34 pull-down, DHODH; format: binding; details: BP12-34 0.25 or 0.5 µM pull-down, A549 cell lysates
T1 construct: endogenous in cells; host or cells: A549 cell lysate
Procedure: (§3) Supplementary figure 4. P12-34 interacts with cytochrome bc1 complex. Cell lysates of A549 were treated with 0.25 μM (+) or 0.5 μM (++) BP12-34 at 4 ℃ for 1 h, then incubated with streptavidin (SA) beads at 4 ℃ for 30 min. Non-specific binding was removed by washing with PBS. After precipitation, P12-34-associated proteins were analyzed by western blot with the indicated antibodies against DHODH and cytochrome bc1 complex.

DENV-3 = test: High-content image analysis of DENV-3 infection (NS3) in A549 cells; format: cell-based, dengue virus
Procedure: as §1

DENV-4 = test: High-content image analysis of DENV-4 infection (NS3) in A549 cells; format: cell-based, dengue virus
Procedure: as §1

wild-type DENV (DENV1-4) = test: High-content image analysis, all four serotypes of wild-type DENV in A549 cells; format: cell-based; details: Dengue virus, DENV1, A549, read-out: IC50 range over the four serotypes
Procedure: as §1

cytochrome bc1 complex = target: T2, cytochrome bc1 complex (Homo sapiens, UniProt P00156+P22695+P31930); test: BP12-34 pull-down, cytochrome bc1 complex; format: binding; details: BP12-34 0.25 or 0.5 µM pull-down, A549 cell lysates
T2 construct: endogenous in cells; host or cells: A549 cell lysate
Procedure: as §3

[11] = P12-34 1 µM, uridine 50 µg/ml, A549 cells

T1 sequence (Q02127 whole entry): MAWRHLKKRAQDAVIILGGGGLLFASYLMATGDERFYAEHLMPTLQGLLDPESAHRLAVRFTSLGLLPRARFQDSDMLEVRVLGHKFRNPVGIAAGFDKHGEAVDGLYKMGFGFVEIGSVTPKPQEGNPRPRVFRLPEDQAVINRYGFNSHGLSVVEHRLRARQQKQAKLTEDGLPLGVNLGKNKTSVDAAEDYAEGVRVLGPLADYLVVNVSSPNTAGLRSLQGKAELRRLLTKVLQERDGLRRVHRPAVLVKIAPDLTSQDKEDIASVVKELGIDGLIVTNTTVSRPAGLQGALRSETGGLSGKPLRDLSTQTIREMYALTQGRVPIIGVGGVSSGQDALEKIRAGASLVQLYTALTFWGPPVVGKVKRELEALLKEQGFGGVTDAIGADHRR

SMILES | effect on viral entry (DENV-2 [1]) | effect on NS3 levels at early stage of infection (viral translation) (DENV-2 [2]) | effect on viral binding (DENV-2 [3]) | SI (CC50/IC50) (DENV-2-eGFP; A549 cells) | IC50 (DENV-2-eGFP) [nM] | suppression of intracellular viral RNA replication (DENV-2 [5]) | SI (CC50/IC50) (ZIKV; A549 cells) | relative potency versus AR-12 (fold) (ZIKV; A549 cells) | IC50 (ZIKV) [nM] | relative potency versus AR-12 (fold) (JEV-eGFP; A549 cells) | SI (CC50/IC50) (JEV-eGFP; A549 cells) | IC50 (JEV-eGFP) [nM] | CC50 (A549 cells [6]) [nM] | noncytotoxic concentrations (A549 cells [6]) [µM] | CC50 at 24 h [7] [nM] | also measured
CC(C)(N)C(=O)Nc1ccc(-n2cc(C(F)(F)F)cc2-c2ccc3c(ccc4ccccc43)c2)cc1 [P12-23] | no suppressive effect | did not reduce NS3 levels until 4~6 h post-infection | no suppressive effect | 297 and 296.7 ± 35.1 | 69.7 ± 8.9 | more potent than 2′CMA | 158 ± 13.6 | ~ 10 fold | 130 ± 11.7 | ~ 10 fold | 385.5 ± 11.8 | 53.2 ± 1.6 | 20500 ± 100 | ≤ 12.5 | ~20000 | induction of ER stress (GRP78, eIF2α phosphorylation) or autophagy (LC3B form II) (A549 cells [4]): did not significantly induce ER stress
N[C@@H](Cc1ccccc1)C(=O)Nc1ccc(-n2cc(C(F)(F)F)cc2-c2ccc3c(ccc4ccccc43)c2)cc1 [P12-34] | no suppressive effect | did not reduce NS3 levels until 4~6 h post-infection | no suppressive effect | 388 and 387.9 ± 14.7 | 52.1 ± 2 | more potent than 2′CMA | 171.4 ± 16.1 | ~ 10 fold | 119 ± 11.7 | ~ 10 fold | 360.3 ± 3.1 | 56.1 ± 0.5 | 20300 ± 200 | ≤ 12.5 | ~20000 | innate immune responses triggered by ssRNA (ISRE reporter, IFIT1, IRF-1) [8]: enhanced the innate immune responses; mice alive at 39 dpi ([9]; Stat1-/- mice, subcutaneous DENV-2 challenge, 2.5 mg/kg per day i.p. for first 6 days, n = 5): 60%; viral genome copy numbers in sera ([9]; Stat1-/- mice, subcutaneous DENV-2 challenge, 2.5 mg/kg per day i.p., especially at 3 dpi): significantly reduced; protection against DENV challenge injected intraperitoneally ([9]; virus injected intraperitoneally, data not shown): did not protect mice; SI (CC50/IC50) (DENV-1; DENV-1, A549 cells): 206.3 ± 3.5; IC50 (DENV-1; Dengue virus, DENV1, A549, 24 h): 98 ± 1.7 nM; SI (CC50/IC50) (DENV-2 [10]; DENV-2, A549 cells): 326.5 ± 26.4; IC50 (DENV-2 [10]; Dengue virus, DENV2, A549, 24 h): 62.2 ± 4.9 nM; interaction with DHODH (DHODH): did not appear to interact with DHODH; SI (CC50/IC50) (DENV-3; DENV-3, A549 cells): 223.4 ± 8.6; IC50 (DENV-3; Dengue virus, DENV3, A549, 24 h): 90.6 ± 3.4 nM; suppressive effect on DENV replication with added Oro or DHO (DENV-2-eGFP; P12-34 1 µM, A549 cells, DENV-2-eGFP MOI 5): addition of Oro but not DHO could block the suppressive effect; anti-DENV activity in mitochondria-depleted cells (DENV-2-eGFP; ρ0 A549 cells, DENV-2-eGFP MOI 5, 24 h): lost; SI (CC50/IC50) (DENV-4; DENV-4, A549 cells): 317.8 ± 24.9; IC50 (DENV-4; Dengue virus, DENV4, A549, 24 h): 63.9 ± 5.1 nM; IC50 (wild-type DENV (DENV1-4)): 62 to 98 nM; suppression of ZIKV replication with uridine supplement (ZIKV; [11]): this effect of uridine was also noted; suppression of JEV replication with uridine supplement (JEV-eGFP; [11]): this effect of uridine was also noted; binding to cytochrome bc1 complex (cytochrome bc1 complex): bind cytochrome bc1 complex in a dose-dependent manner
Cc1c(-c2ccc(-c3ccccc3F)cc2)nc2ccc(F)cc2c1C(=O)O [brequinar, reference compound] |  |  |  |  |  |  |  |  |  |  |  |  |  |  |  | effect on DENV replication (DENV-2-eGFP; A549 cells, DENV-2-eGFP MOI 5, reversed by exogenous uridine 50 µg/ml): reduced DENV replication in a dose-dependent manner
